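A five-concentration, 48-hour dose response in 96-well plates underlies each endpoint, interpolated linearly between surrounding concentrations. GI50: concentration for 50% inhibition of growth. At the TGI there is no net growth.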
Assays:
Assay in all cases: growth of human tumour cells (NCI), 48 h
A549 NSCLC = tested on: A549 NSCLC
COLO 205 colon = tested on: COLO 205 colon
HCC-2998 colon = tested on: HCC-2998 colon
HOP-62 NSCLC = tested on: HOP-62 NSCLC
NCI-H226 lung = tested on: NCI-H226 lung
NCI-H460 lung = tested on: NCI-H460 lung
NCI-H522 lung = tested on: NCI-H522 lung
SK-OV-3 ovarian = tested on: SK-OV-3 ovarian
SW-620 colon = tested on: SW-620 colon
UACC-62 melanoma = tested on: UACC-62 melanoma

O=[N+]([O-])c1ccc(C2CC(c3ccccc3Cl)=Nc3ccccc3S2=O)cc1 (centres undefined)
TGI (A549 NSCLC): 38 µM | TGI (COLO 205 colon): 22.1 µM | TGI (HCC-2998 colon): 6.85 µM | TGI (HOP-62 NSCLC): 23.4 µM | TGI (NCI-H226 lung): 17.6 µM | TGI (NCI-H460 lung): 17.9 µM | TGI (NCI-H522 lung): 3.28 µM | TGI (SK-OV-3 ovarian): 52.9 µM | TGI (SW-620 colon): 3.91 µM | TGI (UACC-62 melanoma): 6.73 µM

COc1cc(-c2cc(-c3ccc(Nc4ccnc5cc(Cl)ccc45)cc3)nc(N3CCOCC3)n2)cc(OC)c1OC
GI50 (A549 NSCLC): 1760 nM | TGI (A549 NSCLC): 3.47 µM | GI50 (COLO 205 colon): 2.79 µM | TGI (COLO 205 colon): 9.36 µM | GI50 (HCC-2998 colon): 3.64 µM | TGI (HCC-2998 colon): > 100 µM | GI50 (HOP-62 NSCLC): 1.95 µM | TGI (HOP-62 NSCLC): 4.09 µM | GI50 (NCI-H226 lung): 11.4 µM | TGI (NCI-H226 lung): 38.2 µM | GI50 (NCI-H460 lung): 1.87 µM | TGI (NCI-H460 lung): 3.89 µM | GI50 (NCI-H522 lung): 2.03 µM | TGI (NCI-H522 lung): 5.03 µM | GI50 (SK-OV-3 ovarian): 14.9 µM | TGI (SK-OV-3 ovarian): 31.7 µM | GI50 (SW-620 colon): 1.28 µM | TGI (SW-620 colon): 3.45 µM | GI50 (UACC-62 melanoma): 1.98 µM | TGI (UACC-62 melanoma): 3.83 µM

CN(C)C(=Nc1nc(=[N+](C)C)ss1)N(C)C
TGI (A549 NSCLC): > 100 µM | TGI (HCC-2998 colon): > 100 µM | TGI (HOP-62 NSCLC): > 100 µM | TGI (NCI-H226 lung): > 100 µM | TGI (NCI-H460 lung): > 100 µM | TGI (NCI-H522 lung): > 100 µM | TGI (SK-OV-3 ovarian): > 100 µM | TGI (SW-620 colon): > 100 µM | TGI (UACC-62 melanoma): > 100 µM

COC(=O)C1OC2(CCCC3CC32)O[C@H]1C(=O)OC (some centres undefined)
TGI (A549 NSCLC): > 100 µM | TGI (COLO 205 colon): > 100 µM | TGI (HCC-2998 colon): > 100 µM | TGI (HOP-62 NSCLC): > 100 µM | TGI (NCI-H226 lung): > 100 µM | TGI (NCI-H460 lung): > 100 µM | TGI (NCI-H522 lung): > 100 µM | TGI (SK-OV-3 ovarian): > 100 µM | TGI (SW-620 colon): > 100 µM | TGI (UACC-62 melanoma): > 100 µM

O=C1NC(=O)C(=Nc2cccc3c(=O)[nH][nH]c(=O)c23)C(c2nc3ccccc3s2)C1=O (centres undefined)
TGI (A549 NSCLC): > 100 µM | TGI (COLO 205 colon): > 100 µM | TGI (HCC-2998 colon): > 100 µM | TGI (HOP-62 NSCLC): > 100 µM | TGI (NCI-H226 lung): > 100 µM | TGI (NCI-H460 lung): > 100 µM | TGI (NCI-H522 lung): > 100 µM | TGI (SK-OV-3 ovarian): > 100 µM | TGI (SW-620 colon): > 100 µM | TGI (UACC-62 melanoma): > 100 µM

CCN(CC)c1ccc(N=Nc2ccc([N+](=O)[O-])cc2OC(=O)/C=C/c2ccccc2)c(OC(=O)/C=C/c2ccccc2)c1
TGI (A549 NSCLC): > 100 µM | TGI (COLO 205 colon): > 100 µM | TGI (HCC-2998 colon): > 100 µM | TGI (HOP-62 NSCLC): > 100 µM | TGI (NCI-H226 lung): > 100 µM | TGI (NCI-H460 lung): 11.1 µM | TGI (NCI-H522 lung): > 100 µM | TGI (SK-OV-3 ovarian): > 100 µM | TGI (SW-620 colon): > 100 µM | TGI (UACC-62 melanoma): > 74.8 µM

CC1(C)O[C@@H](CCl)C[C@H](C#N)O1
TGI (A549 NSCLC): > 100 µM | TGI (COLO 205 colon): > 100 µM | TGI (HCC-2998 colon): > 100 µM | TGI (HOP-62 NSCLC): > 100 µM | TGI (NCI-H226 lung): > 100 µM | TGI (NCI-H460 lung): > 100 µM | TGI (NCI-H522 lung): > 100 µM | TGI (SK-OV-3 ovarian): > 100 µM | TGI (SW-620 colon): > 100 µM | TGI (UACC-62 melanoma): > 100 µM

Cc1cccc(C(C)C)c1N1C(=O)C(=O)C(c2nc3ccccc3o2)C(=O)C1=O
TGI (A549 NSCLC): > 100 µM | TGI (COLO 205 colon): > 100 µM | TGI (HCC-2998 colon): > 100 µM | TGI (HOP-62 NSCLC): > 100 µM | TGI (NCI-H226 lung): > 100 µM | TGI (NCI-H460 lung): > 100 µM | TGI (NCI-H522 lung): 89.5 µM | TGI (SK-OV-3 ovarian): > 100 µM | TGI (SW-620 colon): > 100 µM | TGI (UACC-62 melanoma): > 100 µM

N[C@@H]1C(=O)N2C(C(=O)OC(c3ccccc3)c3ccccc3)=C(CCl)CS[C@H]12
GI50 (A549 NSCLC): > 67500 nM | TGI (A549 NSCLC): > 100 µM | GI50 (COLO 205 colon): 40.3 µM | TGI (COLO 205 colon): > 100 µM | GI50 (HCC-2998 colon): 43 µM | TGI (HCC-2998 colon): > 100 µM | GI50 (HOP-62 NSCLC): 63.4 µM | TGI (HOP-62 NSCLC): > 100 µM | GI50 (NCI-H226 lung): 55.2 µM | TGI (NCI-H226 lung): > 100 µM | GI50 (NCI-H460 lung): 34 µM | TGI (NCI-H460 lung): > 100 µM | GI50 (NCI-H522 lung): 31 µM | TGI (NCI-H522 lung): > 84.7 µM | GI50 (SK-OV-3 ovarian): > 100 µM | TGI (SK-OV-3 ovarian): > 100 µM | GI50 (SW-620 colon): 36.6 µM | TGI (SW-620 colon): > 100 µM | GI50 (UACC-62 melanoma): 42.7 µM | TGI (UACC-62 melanoma): > 91.2 µM
